In patent US20240208961A1, “EIF4E INHIBITORS AND USES THEREOF” (PIC Therapeutics, Inc., priority 2022, published 2024):
“And” between values parts separate entries of the source, which are not always exact repeats. Equal entries are not always repeated. Where two headings read alike, the source gives them in different places.

What was measured:
[1] = Pharmacokinetic studies of certain compounds in female Balb/c mice (Example 5); type: in vivo
How it was run: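 Female Balb/c mice (N=9) were fasted overnight and given compound PO as a suspension in 1% CMC/0.2% Tween 80 or IV in 5% DMSO/5% Solutol HS15/90% saline. Facial-vein plasma was taken from 0.083 to 24 h and assayed by LC-MS. Parameters are non-compartmental, and F was based on AUCINF or AUClast.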

ZR-75-1 = test: Cell viability assay, adherent cell line, 5 day Alamar Blue (Example 8): ZR-75-1; type: cell-based; conditions: Homo sapiens, 120 h, ZR-75-1, Breast Cancer Cell Viability
[2] = I-8 IV 1 mg/kg, 8 hr, BQL = below quantifiable limit of 3.00 ng/mL
[3] = I-8 IV 1 mg/kg, 24 hr, BQL = below quantifiable limit of 3.00 ng/mL

Plasma concentration Individual ([1]; I-8 IV 1 mg/kg, 0.083 hr, 1 mg/kg): 2020 ng/mL and 1630 ng/mL | Plasma concentration Individual ([1]; I-8 IV 1 mg/kg, 0.25 hr, 1 mg/kg): 632 ng/mL and 700 ng/mL | Plasma concentration Individual ([1]; I-8 IV 1 mg/kg, 0.5 hr, 1 mg/kg): 309 ng/mL and 296 ng/mL | Plasma concentration Individual ([1]; I-8 IV 1 mg/kg, 1 hr, 1 mg/kg): 66.5 ng/mL and 97.1 ng/mL | Plasma concentration Individual ([1]; I-8 IV 1 mg/kg, 2 hr, 1 mg/kg): 25.8 ng/mL and 16.3 ng/mL | Plasma concentration Individual ([1]; I-8 IV 1 mg/kg, 4 hr, 1 mg/kg): 7.83 ng/mL and 8.03 ng/mL | Plasma concentration Individual [1, 2]: BQL | Plasma concentration Mean [1, 2]: BQL | Plasma concentration Individual [1, 3]: BQL | Plasma concentration Mean [1, 3]: BQL | F ([1]; I-8 PO 50 mg/kg vs IV 1 mg/kg): 27.8% | Plasma concentration Individual ([1]; I-8 PO 50 mg/kg, 0.083 hr, 50 mg/kg): 482 ng/mL and 270 ng/mL | Plasma concentration Individual ([1]; I-8 PO 50 mg/kg, 0.25 hr, 50 mg/kg): 1250 ng/mL and 2030 ng/mL | Plasma concentration Individual ([1]; I-8 PO 50 mg/kg, 0.5 hr, 50 mg/kg): 1900 ng/mL and 3970 ng/mL and 4110 ng/mL | Plasma concentration Individual ([1]; I-8 PO 50 mg/kg, 1 hr, 50 mg/kg): 3600 ng/mL and 2260 ng/mL | Plasma concentration Individual ([1]; I-8 PO 50 mg/kg, 2 hr, 50 mg/kg): 2510 ng/mL and 1700 ng/mL | Plasma concentration Individual ([1]; I-8 PO 50 mg/kg, 4 hr, 50 mg/kg): 536 ng/mL and 958 ng/mL | Plasma concentration Individual ([1]; I-8 PO 50 mg/kg, 8 hr, 50 mg/kg): 127 ng/mL and 134 ng/mL | Plasma concentration Individual ([1]; I-8 PO 50 mg/kg, 24 hr, 50 mg/kg): 5.77 ng/mL and 14.0 ng/mL and 3.49 ng/mL | concentration at 0.083 hr ([1]; female, Balb/c, mouse, plasma, iv, 1 mg/kg, I-8 IV 1 mg/kg, 0.083 hr, read-out: Plasma concentration Individual): 1780 ng/mL | concentration at 0.083 hr ([1]; female, Balb/c, mouse, plasma, iv, 1 mg/kg, I-8 IV 1 mg/kg, 0.083 hr, read-out: Plasma concentration Mean): 1810 ng/mL | concentration at 0.25 hr ([1]; female, Balb/c, mouse, plasma, iv, 1 mg/kg, I-8 IV 1 mg/kg, 0.25 hr, read-out: Plasma concentration Individual): 847 ng/mL | concentration at 0.25 hr ([1]; female, Balb/c, mouse, plasma, iv, 1 mg/kg, I-8 IV 1 mg/kg, 0.25 hr, read-out: Plasma concentration Mean): 726 ng/mL | concentration at 0.5 hr ([1]; female, Balb/c, mouse, plasma, iv, 1 mg/kg, I-8 IV 1 mg/kg, 0.5 hr, read-out: Plasma concentration Individual): 232 ng/mL | concentration at 0.5 hr ([1]; female, Balb/c, mouse, plasma, iv, 1 mg/kg, I-8 IV 1 mg/kg, 0.5 hr, read-out: Plasma concentration Mean): 279 ng/mL | concentration at 1 hr ([1]; female, Balb/c, mouse, plasma, iv, 1 mg/kg, I-8 IV 1 mg/kg, 1 hr, read-out: Plasma concentration Individual): 85.2 ng/mL | concentration at 1 hr ([1]; female, Balb/c, mouse, plasma, iv, 1 mg/kg, I-8 IV 1 mg/kg, 1 hr, read-out: Plasma concentration Mean): 82.9 ng/mL | concentration at 2 hr ([1]; female, Balb/c, mouse, plasma, iv, 1 mg/kg, I-8 IV 1 mg/kg, 2 hr, read-out: Plasma concentration Individual): 24.8 ng/mL | concentration at 2 hr ([1]; female, Balb/c, mouse, plasma, iv, 1 mg/kg, I-8 IV 1 mg/kg, 2 hr, read-out: Plasma concentration Mean): 22.3 ng/mL | concentration at 4 hr ([1]; female, Balb/c, mouse, plasma, iv, 1 mg/kg, I-8 IV 1 mg/kg, 4 hr, read-out: Plasma concentration Individual): 10 ng/mL | concentration at 4 hr ([1]; female, Balb/c, mouse, plasma, iv, 1 mg/kg, I-8 IV 1 mg/kg, 4 hr, read-out: Plasma concentration Mean): 8.62 ng/mL | concentration at 0.083 h ([1]; female, Balb/c, mouse, plasma, po, 50 mg/kg, I-8 PO 50 mg/kg, 0.083 hr, read-out: Plasma concentration Individual): 247 ng/mL | concentration at 0.083 h ([1]; female, Balb/c, mouse, plasma, po, 50 mg/kg, I-8 PO 50 mg/kg, 0.083 hr, read-out: Plasma concentration Mean): 333 ng/mL | concentration at 0.25 h ([1]; female, Balb/c, mouse, plasma, po, 50 mg/kg, I-8 PO 50 mg/kg, 0.25 hr, read-out: Plasma concentration Individual): 1220 ng/mL | concentration at 0.25 h ([1]; female, Balb/c, mouse, plasma, po, 50 mg/kg, I-8 PO 50 mg/kg, 0.25 hr, read-out: Plasma concentration Mean): 1500 ng/mL | concentration at 0.5 hr ([1]; female, Balb/c, mouse, plasma, po, 50 mg/kg, I-8 PO 50 mg/kg, 0.5 hr, read-out: Plasma concentration Mean): 3330 ng/mL | concentration at 1 h ([1]; female, Balb/c, mouse, plasma, po, 50 mg/kg, I-8 PO 50 mg/kg, 1 hr, read-out: Plasma concentration Individual): 1810 ng/mL | concentration at 1 h ([1]; female, Balb/c, mouse, plasma, po, 50 mg/kg, I-8 PO 50 mg/kg, 1 hr, read-out: Plasma concentration Mean): 2560 ng/mL | concentration at 2 h ([1]; female, Balb/c, mouse, plasma, po, 50 mg/kg, I-8 PO 50 mg/kg, 2 hr, read-out: Plasma concentration Individual): 1670 ng/mL | concentration at 2 h ([1]; female, Balb/c, mouse, plasma, po, 50 mg/kg, I-8 PO 50 mg/kg, 2 hr, read-out: Plasma concentration Mean): 1960 ng/mL | concentration at 4 h ([1]; female, Balb/c, mouse, plasma, po, 50 mg/kg, I-8 PO 50 mg/kg, 4 hr, read-out: Plasma concentration Individual): 530 ng/mL | concentration at 4 h ([1]; female, Balb/c, mouse, plasma, po, 50 mg/kg, I-8 PO 50 mg/kg, 4 hr, read-out: Plasma concentration Mean): 675 ng/mL | concentration at 8 h ([1]; female, Balb/c, mouse, plasma, po, 50 mg/kg, I-8 PO 50 mg/kg, 8 hr, read-out: Plasma concentration Individual): 155 ng/mL | concentration at 8 h ([1]; female, Balb/c, mouse, plasma, po, 50 mg/kg, I-8 PO 50 mg/kg, 8 hr, read-out: Plasma concentration Mean): 139 ng/mL | concentration at 24 h ([1]; female, Balb/c, mouse, plasma, po, 50 mg/kg, I-8 PO 50 mg/kg, 24 hr, read-out: Plasma concentration Mean): 7.75 ng/mL | AUC(0-inf) ([1]; mouse, plasma, I-8 IV 1 mg/kg): 717 ng·h/mL | AUC(0-t) ([1]; mouse, plasma, I-8 IV 1 mg/kg): 705 ng·h/mL | C0 ([1]; mouse, plasma, I-8 IV 1 mg/kg): 2850 ng/mL | MRT inf ([1]; mouse, plasma, I-8 IV 1 mg/kg): 28.3 min | MRT last ([1]; mouse, plasma, I-8 IV 1 mg/kg): 23.2 min | clearance ([1]; mouse, plasma, I-8 IV 1 mg/kg): 23.2 mL/min/kg | half-life ([1]; mouse, plasma, I-8 IV 1 mg/kg): 58.2 min | Vd ([1]; mouse, plasma, I-8 IV 1 mg/kg, read-out: Vss): 0.657 L/kg | AUC(0-inf) ([1]; mouse, plasma, I-8 PO 50 mg/kg): 9970 ng·h/mL | AUC(0-t) ([1]; mouse, plasma, I-8 PO 50 mg/kg): 9930 ng·h/mL | Cmax ([1]; mouse, plasma, I-8 PO 50 mg/kg): 3330 ng/mL | MRT inf ([1]; mouse, plasma, I-8 PO 50 mg/kg): 182 min | MRT last ([1]; mouse, plasma, I-8 PO 50 mg/kg): 176 min | Tmax ([1]; mouse, plasma, I-8 PO 50 mg/kg): 30 min | half-life ([1]; mouse, plasma, I-8 PO 50 mg/kg): 197 min
SMILES: CC(C)Cc1sc(Nc2ncc(-c3cccs3)cc2C(=O)O)nc1C1=CCCC1 [Compound I-8]
IC50 (ZR-75-1): ≤ 1 µM
